From US8815859B2, “Substituted pyrazin-2-ones and substituted 5,6,7,8-tetrahydroquinoxalin-2-ones and methods of use thereof” (Merck Patent GmbH, priority 2008, dated 2014)

Columns and labels:
INS-1 cells = assay: Insulin secretion assay in INS-1 cells (glucose at 4.2 mM); assay type: cell-based, rat; conditions: glucose 4.2 mM, 1 h incubation, control = glucose 4.2 mM; for Insulin secretion, % of ctrl at 10 μM of cpd: 10 μM of compound; for Insulin secretion, % of ctrl at 50 μM of cpd: 50 μM of compound
Protocol: INS-1 cells were cultured in complete medium, RPMI1640 containing 1 mM sodium pyruvate, 50 μM 2-mercaptoethanol, 2 mM glutamine, 10 mM HEPES, 100 IU/mL penicillin, and 100 μg/mL streptomycin (CM), supplemented with 10 mM glucose, and 10% (vol/vol) heat-inactivated fetal calf serum (FCS), as described by Asfari et al. (Endocrinology 130: 167-178, 1992).
INS-1 cells were plated and cultured in 48-well plates. After 2 days of culture, the medium was removed and cells were cultured for 24 h with a medium change to 5 mM glucose, 1% FCS. The cells were then washed with Krebs-Ringer Bicarbonate HEPES buffer (KRBH; 135 mM NaCl; 3.6 mM KCl; 5 mM NaHCO3; 0.5 mM NaH2PO4; 0.5 mM MgCl2; 1.5 mM CaCl2 and 10 mM HEPES; pH 7.4) 0,1% BSA containing 2.8 mM glucose and preincubated for 30 min at 37° C. in the same buffer. The cells were then washed twice and incubated for 1 h in KRBH 0.1% BSA containing 4.2 mM glucose and different concentrations of the tested molecule. Insulin concentration in the collected supernatants was measured with ELISA using rat insulin antibody (Insulin Rat Elit PLUS, cat. ref 10-1145-01).
Insulin secretion results are expressed in % of control (glucose 4.2 mM).
Insulin Secretion in INS-1 Cells (Glucose at 4.2 mM)

Row | SMILES | melting point | Insulin secretion, % of ctrl at 10 μM of cpd (INS-1 cells) | Insulin secretion, % of ctrl at 50 μM of cpd (INS-1 cells)
1 | CCn1ccnc(-c2ccc(S(C)(=O)=O)cc2)c1=O [Example 5-2, 1-ethyl-3-[4-(methylsulfonyl)phenyl]pyrazin-2(114)-one] | 108 to 110 °C | – | –
2 | CCn1ccnc(-c2ccc3cc[nH]c3c2)c1=O [Example 5-16, 1-ethyl-3-(1H-indol-6-yl)pyrazin-2(1H)-one] | 170 °C | – | –
3 | O=c1c(-c2ccc(Cl)cc2)nccn1CC1CC1 [Example 9-8, 3-(4-chlorophenyl)-1-(cyclopropylmethyl)pyrazin-2(1H)-one] | – | 172 % of ctrl | 333 % of ctrl
4 | CCn1ccnc(-c2ccc3c(c2)OCO3)c1=O [Example 5-5, 3-(1,3-benzodioxol-5-yl)-1-ethylpyrazin-2(1H)-one] | – | 158 % of ctrl | 204 % of ctrl
5 | CCn1ccnc(-c2ccc(C(=O)O)cc2)c1=O [Example 5-15, 4-(4-ethyl-3-oxo-3,4-dihydropyrazin-2-yl)benzoic acid] | 170 °C | – | –
6 | CC(C)Cn1ccnc(-c2ccc(Cl)cc2)c1=O [Example 9-7, 3-(4-chlorophenyl)-1-isobutylpyrazin-2(1H)-one] | – | 140 % of ctrl | 338 % of ctrl
7 | CCCn1ccnc(-c2ccccc2)c1=O [Example 9-3, 3-phenyl-1-propylpyrazin-2(1H)-one] | – | 145 % of ctrl | 182 % of ctrl
8 | CCn1c2c(nc(-c3ccc(Cl)cc3)c1=O)CCCC2 [Example 9, 3-(4-chlorophenyl)-1-ethyl-5,6,7,8-tetrahydroquinoxalin-2(1H)-one] | 110 to 113 °C | 343 % of ctrl | 371 % of ctrl
